In US11236083B2, “Compounds and pharmaceutical compositions for modulating SGK activity, and methods thereof” (NEW ERA PHARMA, INC., priority 2016, dated 2022):
Like-named read-outs stand apart in the source and are kept apart here.

Key:
Sgk1 = target: T1, Sgk1 (Homo sapiens, UniProt O00141); assay: Enzyme based assay for SGK1 (biotinylated Akt Substrates-2 peptide, Eu3+ Cryptate/XL665 detection); format: biochemical
T1 sequence (O00141 1-431): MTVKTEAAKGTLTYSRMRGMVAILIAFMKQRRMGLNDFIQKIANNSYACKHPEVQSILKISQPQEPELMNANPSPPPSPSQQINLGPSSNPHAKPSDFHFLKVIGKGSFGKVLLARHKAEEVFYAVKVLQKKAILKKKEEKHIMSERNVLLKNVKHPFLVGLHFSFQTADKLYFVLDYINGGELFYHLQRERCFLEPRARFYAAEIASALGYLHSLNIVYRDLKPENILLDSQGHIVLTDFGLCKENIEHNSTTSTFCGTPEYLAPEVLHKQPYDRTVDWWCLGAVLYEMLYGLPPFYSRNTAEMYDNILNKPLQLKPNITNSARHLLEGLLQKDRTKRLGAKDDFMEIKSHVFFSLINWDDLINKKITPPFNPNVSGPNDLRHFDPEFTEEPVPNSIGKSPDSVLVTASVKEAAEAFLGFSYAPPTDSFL
Protocol: (§1) 1. Enzyme Based Assays for SGK1, SGK2, SGK3, and Akt1
(§2) The kinase enzymatic reaction is carried out with a biotinylated Akt Substrates-2 peptide substrate. The phosphorylated substrate is then detected using a specific anti-phospho peptide antibody which is coupled with Eu^3+ Cryptate and XL665 conjugated with streptavidin.
(§3) Exemplary Assay Conditions
(§4) • Enzyme: ˜0.1 nM • Substrate: 0.2 μM • ATP: 50 μM and 1 mM • Mg^2+: 10 mM • Reaction time: 60 min with 50 μM ATP and 30 min with 1 mM ATP • SA-XL to Biotin: 1:10
(§5) Detailed Steps • 1. prepare the enzyme and substrate solution with the buffer from Cisbio • 2. add the enzyme and substrate solution to the diluted compound plate • 3. transfer 5 μL of compound, enzyme, and substrate mixture to an 384-well assay plate • 4. add 5 μL ATP (with Mg^2+) solution to initiate the reaction • 5. after certain time, add 10 μL of stop solution containing SA-XL and specific antibody • 6. read the plate after 2 h incubation at rt • 7. process the data using prizm software (Exemplary results are shown in FIG. 1.) 2. PK Studies Protocol

Sgk2 = target: T2, Sgk2 (Homo sapiens, UniProt Q9HBY8); assay: Enzyme based assay for SGK2 (biotinylated Akt Substrates-2 peptide, Eu3+ Cryptate/XL665 detection); format: biochemical
T2 sequence (Q9HBY8 1-367): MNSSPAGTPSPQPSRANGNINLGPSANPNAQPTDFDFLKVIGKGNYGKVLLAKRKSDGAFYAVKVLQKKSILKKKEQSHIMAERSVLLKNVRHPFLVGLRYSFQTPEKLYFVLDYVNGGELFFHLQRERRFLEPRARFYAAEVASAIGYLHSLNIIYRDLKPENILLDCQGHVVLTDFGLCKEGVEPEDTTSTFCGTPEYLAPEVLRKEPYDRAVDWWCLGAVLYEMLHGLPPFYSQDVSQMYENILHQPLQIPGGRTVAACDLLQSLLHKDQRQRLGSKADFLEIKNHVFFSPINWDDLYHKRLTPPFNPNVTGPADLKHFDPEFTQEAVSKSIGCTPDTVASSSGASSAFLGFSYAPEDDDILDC
Protocol: as §1, §2, §3, §4, §5

[1] = 50 μM ATP, read-out: Sgk1 (50 μM ATP)
[2] = 1 mM ATP, read-out: Sgk1 (1 mM ATP)
[3] = 50 μM ATP, read-out: Sgk2 (50 μM ATP)
[4] = 1 mM ATP, read-out: Sgk2 (1 mM ATP)

Structure (SMILES)	IC50 (Sgk1; [1])	IC50 (Sgk1; [2])	IC50 (Sgk2; [3])	IC50 (Sgk2; [4])
COc1ccc(F)c(S(=O)(=O)Nc2ccc(-c3cc(O[C@@H]4CCOC4)c4c(N)n[nH]c4c3)nc2)c1	8.5 nM	10.3 nM	4 nM	36 nM
COc1ccc(F)c(S(=O)(=O)Nc2ccc(-c3cc(OC4CCOC4)c4c(N)n[nH]c4n3)cc2)c1 (stereo not shown)	24.7 nM	8.9 nM	7.6 nM	7.6 nM
COc1ccc(F)c(S(=O)(=O)Nc2ccc(-c3cnc4c(N)n[nH]c4c3)nc2)c1	141 nM	208 nM	27.8 nM	134 nM
COc1ccc(Cl)c(S(=O)(=O)Nc2ccc(-c3cc(OCC4CNCCO4)c4cn[nH]c4c3)cc2)c1 (stereo not shown)	1.8 nM	31.9 nM	1.8 nM	25.2 nM
COc1ccc(F)c(S(=O)(=O)Nc2ccc(-c3cc4c5c(n[nH]c5c3)NC(=O)CO4)cc2)c1	30.6 nM	970 nM	24.3 nM	222 nM
COc1ccc(F)c(S(=O)(=O)Nc2ccc(-c3cc4[nH]ncc4cn3)cc2)c1	160 nM	> 200 nM	9.7 nM	> 200 nM
CCOc1cc(-c2ccc(NS(=O)(=O)c3cc(OC)ccc3F)cn2)cc2[nH]nc(N)c12	14.1 nM	110 nM	75 nM	19.8 nM
COc1ccc(F)c(S(=O)(=O)Nc2ccc(-c3cc(OC)c4c(N)n[nH]c4c3)cn2)c1	29.7 nM	133 nM	7.2 nM	29.7 nM
COc1ccc(F)c(S(=O)(=O)Nc2cnc(-c3cc(OC)c4c(N)n[nH]c4c3)nc2)c1	17.9 nM	27.3 nM	5.4 nM	4 nM
COc1ccc(F)c(S(=O)(=O)Nc2ccc(-c3cc(OC(C)C)c4c(N)n[nH]c4c3)cc2)c1	42.3 nM	58.8 nM	64 nM	192 nM
COc1ccc(F)c(S(=O)(=O)Nc2ccc(-c3cc(OC4COC4)c4c(N)n[nH]c4c3)cc2)c1	8.6 nM	3.8 nM	4.4 nM	6.5 nM
CNCCOc1cc(-c2ccc(NS(=O)(=O)c3cc(OC)ccc3F)cc2)cc2[nH]nc(N)c12	17.7 nM	11.3 nM	6 nM	38.8 nM
COc1ccc(F)c(S(=O)(=O)Nc2ccc(-c3cc(OC)c4c(N)n[nH]c4n3)cc2)c1	17.1 nM	112 nM	3 nM	35.7 nM
COc1ccc(F)c(S(=O)(=O)Nc2ccc(-c3cc(OCC(C)(C)O)c4c(N)n[nH]c4c3)cc2)c1	36.1 nM		38.3 nM	39.3 nM
COc1ccc(F)c(S(=O)(=O)Nc2ccc(-c3cc(OCC4CNCCO4)c4c(N)n[nH]c4c3)cc2)c1 (stereo not shown)	2.3 nM	3.9 nM	2 nM	3.8 nM
COc1ccc(F)c(S(=O)(=O)Nc2ccc(-c3ccc4c(N)n[nH]c4c3)nc2)c1 [drawing 151]	25 nM	158 nM	4.6 nM	20.8 nM
CCOc1cc(-c2ccc(NS(=O)(=O)c3cc(OC)ccc3F)cc2)nc2[nH]nc(N)c12	16.2 nM	8.2 nM	7.8 nM	10.1 nM
COCCOc1cc(-c2ccc(NS(=O)(=O)c3cc(OC)ccc3F)cn2)cc2[nH]nc(N)c12	40 nM	15.3 nM	4.5 nM	33.2 nM
COc1ccc(F)c(S(=O)(=O)Nc2ccc(-c3cc(O[C@@H]4CCOC4)c4c(N)n[nH]c4c3)cc2)c1	5.5 nM	1.5 nM	4.6 nM	9.3 nM
COc1ccc(F)c(S(=O)(=O)Nc2ccc(-c3cc(O[C@H]4CCOC4)c4c(N)n[nH]c4c3)nc2)c1	109 nM	181 nM	14.6 nM	17.8 nM
COc1ccc(F)c(S(=O)(=O)Nc2ccc(-c3cc4[nH]ncc4c(NCC4CNCCO4)n3)cc2)c1 (stereo not shown)	8.1 nM	4.2 nM	5.3 nM	3.5 nM
COc1ccc(F)c(S(=O)(=O)Nc2ccc(-c3cc(OC)c4c(N)n[nH]c4c3)nc2)c1	13 nM	11.1 nM	5 nM	6.5 nM

The remaining lines, values ahead:

IC50 (Sgk1; [1])	IC50 (Sgk1; [2])	IC50 (Sgk2; [3])	IC50 (Sgk2; [4])	Structure (SMILES)
45 nM	187 nM	4.2 nM	40 nM	COc1ccc(F)c(S(=O)(=O)Nc2ccc(-c3cc(OCCN(C)C)c4c(N)n[nH]c4n3)cc2)c1
92.5 nM	144 nM	31.4 nM	267 nM	COc1ccc(F)c(S(=O)(=O)Nc2ccc(-c3ccc4cn[nH]c4c3)nc2)c1
4.8 nM	12.6 nM	3.4 nM	18.6 nM	COc1ccc(F)c(S(=O)(=O)Nc2ccc(-c3cc4c5c(n[nH]c5c3)NC(=O)CN4)cc2)c1
5.2 nM	2.9 nM	10.3 nM	16.4 nM	COc1ccc(F)c(S(=O)(=O)Nc2ccc(-c3cc(O[C@H]4CCOC4)c4c(N)n[nH]c4c3)cc2)c1
77.6 nM	344 nM	35 nM	323 nM	COc1ccc(F)c(S(=O)(=O)Nc2ccc(-c3cc4c5c(n[nH]c5c3)NC(=O)C(C)(C)O4)cc2)c1
14.1 nM	62.2 nM	3.7 nM	7.5 nM	COc1ccc(F)c(S(=O)(=O)Nc2cnc(-c3ccc4c(N)n[nH]c4c3)nc2)c1
3.4 nM	10.7 nM	3.5 nM	9.8 nM	COc1ccc(F)c(S(=O)(=O)Nc2ccc(-c3cc(OCC4CNCCO4)c4cn[nH]c4n3)cc2)c1 (stereo not shown)
150 nM	542 nM	17.1 nM	13.4 nM	Nc1n[nH]c2cc(-c3ccc(NS(=O)(=O)c4cccc(Cl)c4Cl)cn3)ccc12
> 2000 nM		109 nM		COc1ccc(Cl)c(NS(=O)(=O)c2ccc(-c3ccc4c(N)n[nH]c4n3)cc2)c1
27 nM	20 nM	9.1 nM	104 nM	COc1ccc(F)c(S(=O)(=O)Nc2ccc(-c3cc(OCCN(C)C)c4c(N)n[nH]c4c3)cc2)c1
70.6 nM		38.5 nM	32.7 nM	COc1ccc(F)c(S(=O)(=O)Nc2ccc(-c3cc4[nH]ncc4c(OC)n3)cc2)c1
21.5 nM	49.9 nM	8.4 nM	71.5 nM	COc1ccc(F)c(S(=O)(=O)Nc2ccc(-c3cc(C)c4c(N)n[nH]c4c3)cc2)c1
10.1 nM	9.2 nM	5 nM	7.9 nM	COc1ccc(F)c(S(=O)(=O)Nc2ccc(-c3cc(C)c4c(N)n[nH]c4c3)nc2)c1
12.1 nM		5.9 nM		Cc1n[nH]c2nc(-c3ccc(NS(=O)(=O)c4cc(Cl)ccc4F)cc3)ccc12
28.7 nM	10.4 nM	9.6 nM	69.4 nM	COCCOc1cc(-c2ccc(NS(=O)(=O)c3cc(OC)ccc3F)cc2)nc2[nH]nc(N)c12
